In patent publication US20090270342A1, “IMMUNOREGULATORY AGENT” (priority 2006, published 2009):

What was measured:
[1] = in vivo; cited from earlier work
[2] = test system: intestinal lymph node cells; experiment: Production of IgA, IgG and cytokines by intestinal lymph node cells of mice fed lactosucrose (Experiment 3); format: in vivo; settings: for IFN-γ produced by intestinal lymph node cells / IL-4 produced by intestinal lymph node cells / IL-6 produced by intestinal lymph node cells / IL-10 produced by intestinal lymph node cells / IgA produced by intestinal lymph node cells / IgG produced by intestinal lymph node cells: four weeks
Protocol: In order to investigate what type of immunopathologically-mediated tissue exerts the enhancing effect on gut immunity, the amounts of IgA, IgG, and various cytokines were measured. Similarly as in Experiment 1, female BALB/c mice (six weeks old) were preliminary reared for one week on “AIN-93G”, the same standard purified diet as used in Experiment 1. Successively, “LS-90P”, a saccharide composition comprising 91.8% (w/w), on a dry solid basis, of lactosucrose commercialized by ENSUIKO Sugar Refining Co., Ltd., Tokyo, Japan, was incorporated into the above purified diet, in which corn starch equal to the amount of the saccharide composition comprising lactosucrose had been removed, to give a lactosucrose content of 2% (w/w) or 5% (w/w), and five mice/group were allowed to ingest the resulting test diet freely. Mice, allowed to ingest “AIN-93G”, as the standard purified diet, were used as control. At four weeks after starting the administration of the test diet, Peyer's patch and intestinal lymph nodes were respectively removed from the mice and cut using a scissor. Then, the resultants were respectively treated in 0.2% (w/v) aqueous collagenase solution at 37° C. for 30 min, and filtrated using a cell strainer to obtain cell suspensions. Each cell suspension was centrifuged to collect cells and the resulting cells were suspended into a 45% (v/v) solution of “PERCOLL”, commercialized by GE Healthcare, to make into a cell suspension. Each resulting suspension was successively placed on a 75% (v/v) “PERCOLL” solution and centrifuged at 1,000×g for 10 min. Cells in a boundary phase between 45% (v/v) and 75% (v/v) “PERCOLL” solution were collected and suspended in RPMI1640 medium comprising 10% FCS and 10 mM HEPES, and the cell concentration was adjusted to 1×10^6 cells/ml. The resulting cell suspension was placed in a 24-well plate to give one ml/well each. Then, 2 μg/ml of Concanavaline A (Con A) as a stimulator to T-cell or 10 μg/ml of lipopolysaccharide (LPS) as a stimulator to B-cell and macrophage cell was admixed with the cell suspension, and then the cells were cultured at 37° C. for 48 hours using 5% (v/v) carbon dioxide gas. A culture supernatant was collected from each well, and the amounts of IgA, IgG, IFN-γ, interleukin-4 (IL-4), IL-6, interleukin-10 (IL-10), and TGF-β were measured by ELISA using an anti-mouse IgA antibody, anti-mouse IgG antibody, anti-mouse IFN-γ antibody (commercialized by Pepro Tech EC. Ltd.), anti-mouse IL-4 antibody (commercialized by R&D Systems), anti-mouse IL-6 antibody (commercialized by R&D Systems), anti-mouse IL-10 antibody (commercialized by R&D Systems), and anti-mouse TGF-β antibody (commercialized by Promega Co., Wisconsin, USA), and the average values of those from five mice were determined. The results for Peyer's patch cells and intestinal lymph node cells are respectively in Tables 3 and 4. The percentages in parentheses in the tables mean a relative value to the amount of IgA, IgG, IFN-γ, IL-4, IL-6, IL-10 or TGF-β produced by Peyer's patch cells or intestinal lymph node cells from the control mice.

[3] = test system: IgA and IgG in cecal content; experiment: pH, weight, IgA and IgG of cecal content (Experiment 2); format: in vivo, mice; settings: Lactosucrose 5% (w/w) diet, four weeks
Protocol: The effect of lactosucrose on the enhancement of gut immunity was investigated by measuring the amounts of IgA and IgG in cecal content. Mice reared for four weeks on the test diet comprising 5% (w/w) of lactosucrose or the control diet, “AIN-93G”, in Experiment 1 were sacrificed and the cecums were extirpated. Successively, the cecal content in each mouse was collected from the cecum and the pH, weight, the amounts of IgA and IgG were measured. The amounts of IgA and IgG were determined by ELISA using an anti-IgA antibody and that using an anti-IgG antibody (Mouse IgG ELISA Quantitation Kit produced by Bethyl Laboratories, Inc., Texas, USA), and expressed by mg/g-cecal content and ng/g-cecal content, respectively. The percentages in parentheses in Table 2 mean the relative values to those of the control.

[4] = Lactosucrose 2% (w/w) diet, Con A
[5] = Lactosucrose 2% (w/w) diet, LPS
[6] = Lactosucrose 2% (w/w) diet, LPS, DL: Detection limit
[7] = Lactosucrose 5% (w/w) diet, Con A
[8] = Lactosucrose 5% (w/w) diet, LPS
[9] = Lactosucrose 5% (w/w) diet, LPS, DL: Detection limit

## OC[C@H]1O[C@@H](O[C@H]2[C@H](O)[C@@H](O)[C@@H](O[C@]3(CO)O[C@H](CO)[C@@H](O)[C@@H]3O)O[C@@H]2CO)[C@H](O)[C@@H](O)[C@H]1O [Lactosucrose, β-D-galactosyl-(1,4)-α-D-glucosyl-(1,2)-β-D-fructoside]
[1]
  Effect of a dose higher than the maximum dose without harmful effect: causes diarrhea
  Maximum dose of lactosucrose without harmful effect: 0.6-0.8 g/kg-body weight
[2]; [4]
  IFN-γ produced by intestinal lymph node cells: 8.5 ± 3.4 ng/mL
  IL-4 produced by intestinal lymph node cells: 22 ± 0.89 pg/mL
  IL-6 produced by intestinal lymph node cells: 3.0 ± 0.81 pg/mL
  IL-10 produced by intestinal lymph node cells: 14 ± 15 pg/mL
  IgA produced by intestinal lymph node cells: 41 ± 15 µg/mL
  IgG produced by intestinal lymph node cells: 1.9 ± 1.5 ng/mL
[2]; [5]
  IL-6 produced by intestinal lymph node cells: 7.4 ± 2.6 pg/mL
  IgA produced by intestinal lymph node cells: 38 ± 17 µg/mL
  IgG produced by intestinal lymph node cells: 1.5 ± 1.0 ng/mL
[2]; [6]
  IFN-γ produced by intestinal lymph node cells: Below DL*
  IL-4 produced by intestinal lymph node cells: Below DL*
  IL-10 produced by intestinal lymph node cells: Below DL*
[2]; Lactosucrose 2% (w/w), Con A
  IFN-γ produced by intestinal lymph node cells, relative value to control: (127%)
  IL-4 produced by intestinal lymph node cells, relative value to control: (88%)
  IL-6 produced by intestinal lymph node cells, relative value to control: (103%)
  IL-10 produced by intestinal lymph node cells, relative value to control: (127%)
  IgA produced by intestinal lymph node cells, relative value to control: (85%)
  IgG produced by intestinal lymph node cells, relative value to control: (100%)
[2]; Lactosucrose 2% (w/w), LPS
  IL-6 produced by intestinal lymph node cells, relative value to control: (107%)
  IgA produced by intestinal lymph node cells, relative value to control: (93%)
  IgG produced by intestinal lymph node cells, relative value to control: (115%)
[2]; [7]
  IFN-γ produced by intestinal lymph node cells: 3.8 ± 1.2 ng/mL
  IL-4 produced by intestinal lymph node cells: 21 ± 1.1 pg/mL
  IL-6 produced by intestinal lymph node cells: 2.7 ± 0.44 pg/mL
  IL-10 produced by intestinal lymph node cells: 14 ± 12 pg/mL
  IgA produced by intestinal lymph node cells: 37 ± 31 µg/mL
  IgG produced by intestinal lymph node cells: 1.00 ± 0.94 ng/mL
[2]; [8]
  IL-6 produced by intestinal lymph node cells: 4.3 ± 1.1 pg/mL
  IgA produced by intestinal lymph node cells: 29 ± 22 µg/mL
  IgG produced by intestinal lymph node cells: 0.79 ± 0.79 ng/mL
[2]; [9]
  IFN-γ produced by intestinal lymph node cells: Below DL*
  IL-4 produced by intestinal lymph node cells: Below DL*
  IL-10 produced by intestinal lymph node cells: Below DL*
[2]; Lactosucrose 5% (w/w), Con A
  IFN-γ produced by intestinal lymph node cells, relative value to control: (57%)
  IL-4 produced by intestinal lymph node cells, relative value to control: (84%)
  IL-6 produced by intestinal lymph node cells, relative value to control: (93%)
  IL-10 produced by intestinal lymph node cells, relative value to control: (127%)
  IgA produced by intestinal lymph node cells, relative value to control: (77%)
  IgG produced by intestinal lymph node cells, relative value to control: (53%)
[2]; Lactosucrose 5% (w/w), LPS
  IL-6 produced by intestinal lymph node cells, relative value to control: (62%)
  IgA produced by intestinal lymph node cells, relative value to control: (71%)
  IgG produced by intestinal lymph node cells, relative value to control: (61%)
[3]
  IgA in cecal content: 5.6 ± 1.6 mg/g
  IgA in cecal content, relative value to control: (982%)
  IgG in cecal content: 140 ± 54 ng/g
  IgG in cecal content, relative value to control: (117%)
  Weight of cecal content: 0.22 ± 0.051 g
  Weight of cecal content, relative value to control: (169%)
  pH of cecal content: 6.63 ± 0.27
[3]; versus control
  Increase of the amount of secreted IgA in cecal content: about 10 folds
